Data from ChEMBL document CHEMBL1201862, “PubChem BioAssay data set” (2004).
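Briefly, cells in 96-well plates were exposed to five compound concentrations for 48 h, and endpoints were estimated by linear interpolation. Abbreviation: GI50, concentration required for 50% inhibition of growth.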 Activity calls are given as the source filed them. Rule as the data show it: active = GI50 up to about 1.1 µM and inactive = higher.

How the values were obtained:
Assay in all cases: inhibition of tumour cell growth, NCI panel, 48 h
[1] = system: MDA-MB-231
[2] = system: SF-539
[3] = system: OVCAR-8
[4] = system: Hs-578T
[5] = system: OVCAR-5
[6] = system: NCI-H23
[7] = system: RXF 393
[8] = system: SW-620
[9] = system: ACHN
[10] = system: IGROV-1
[11] = system: CAKI-1
[12] = system: CCRF-CEM
[13] = system: SNB-19
[14] = system: NCI-H460
[15] = system: OVCAR-3
[16] = system: COLO 205
[17] = system: OVCAR-4
[18] = system: PC-3
[19] = system: SK-MEL-28
[20] = system: LOX IMVI

| SMILES | GI50 [1] | GI50 [2] | GI50 [3] | GI50 [4] | GI50 [5] | GI50 [6] | GI50 [7] | GI50 [8] | GI50 [9] | GI50 [10] | GI50 [11] | GI50 [12] | GI50 [13] | GI50 [14] | GI50 [15] | GI50 [16] | GI50 [17] | GI50 [18] | GI50 [19] | GI50 [20] |
| --- | --- | --- | --- | --- | --- | --- | --- | --- | --- | --- | --- | --- | --- | --- | --- | --- | --- | --- | --- | --- |
| O=C(O)CCSc1ncnc2[nH]cnc12 | > 100 µM (inactive) | > 100 µM (inactive) | > 100 µM (inactive) | > 100 µM (inactive) | > 100 µM (inactive) | > 100 µM (inactive) | > 100 µM (inactive) | > 100 µM (inactive) | > 100 µM (inactive) | > 100 µM (inactive) | > 100 µM (inactive) | > 100 µM (inactive) | > 100 µM (inactive) | > 100 µM (inactive) | > 100 µM (inactive) | > 100 µM (inactive) | > 100 µM (inactive) | > 100 µM (inactive) | > 100 µM (inactive) | > 100 µM (inactive) |
| CSc1cc(-c2ccccn2)nc(-c2ccccn2)c1 | 0.494 µM (active) | 0.171 µM (active) | 0.0845 µM (active) | 3.1 µM (inactive) | 0.179 µM (active) | 0.398 µM (active) | 0.255 µM (active) | 0.126 µM (active) | 0.0334 µM (active) | 0.102 µM (active) | 0.065 µM (active) | 0.0527 µM (active) | 0.564 µM (active) | 0.0541 µM (active) | 0.0279 µM (active) | 0.125 µM (active) | 0.0828 µM (active) | 0.092 µM (active) | 0.0736 µM (active) | 0.043 µM (active) |
| COc1cccc(C(C#N)NC23CC4CC(CC(C4)C2)C3)c1 (stereo not given) | > 100 µM (inactive) | > 100 µM (inactive) | > 100 µM (inactive) | > 100 µM (inactive) | > 100 µM (inactive) | > 100 µM (inactive) | > 100 µM (inactive) | > 100 µM (inactive) | > 100 µM (inactive) | > 100 µM (inactive) | > 100 µM (inactive) | > 100 µM (inactive) | > 100 µM (inactive) | > 100 µM (inactive) | > 100 µM (inactive) | > 100 µM (inactive) | > 100 µM (inactive) | > 100 µM (inactive) | > 100 µM (inactive) | > 100 µM (inactive) |
